Data published in patent US20150148311A1, “NON-SYSTEMIC TGR5 AGONISTS” (Ardelyx, Inc., priority 2011, published 2015).

Columns and labels:
[1] = Compound concentration in gall bladder, LC-MS/MS, 8 h post dose; assay type: in vivo; settings: 30 mg/kg; for Number of Mice with Gallbladder Concentration < LLOQ: mice below LLOQ / mice in group; for concentration at 8 h: male, C57BL/6, mouse, with contents, mice, gallbladder homogenate, read-out: Mean Example Gallbladder Concentration
Experimental: (§1) Eight hours later, each mouse was heavily anesthetized with isoflurane, the peritoneal cavity was opened and the gallbladder, with its entire contents, was carefully excised and weighed. Blood was collected from the left ventricle of the heart and processed to plasma in EDTA-coated tubes containing aprotinin and DPPIV inhibitor for measurement of total GLP-1 (K150FCC; Meso Scales Discovery, Gaithersburg Md.).
Compound concentrations in the gall bladder were determined as follows: each mouse was heavily anesthetized with isoflurane, the peritoneal cavity was opened and the gallbladder, with its entire contents, was carefully excised. After harvest, gall bladders were homogenized in 100 μL water using a micro-homogenizer. Samples of homogenate were diluted 1:5 in water and precipitated with three volumes of neat acetonitrile. After centrifugation, supernatants were analyzed by LC-MS/MS. The level of test compound present in gall bladder samples was interpolated from a standard curve for each individual compound prepared in a matrix of gallbladder homogenate from vehicle treated animals.

[2] = Compound plasma concentration, LC-MS/MS, 8 h post dose; assay type: in vivo; settings: 30 mg/kg; for Number of Mice with Plasma Concentration < LLOQ: mice below LLOQ / mice in group; for concentration at 8 h: male, C57BL/6, mouse, mice, plasma, read-out: Mean Example Plasma Concentration
Experimental: as §1
Plasma samples were treated with acetonitrile containing an internal standard, precipitated proteins removed by centrifugation. Supernatants were analyzed by LC-MS/MS and compound concentrations were determined by interpolated from a standard curve prepared in plasma.

human IBAT = target: T1, human IBAT (Homo sapiens, UniProt Q12908); test: IBAT counter screen, [3H]taurocholic acid uptake in IBAT-transfected HEK293 cells; assay type: cell-based; settings: for EC50: read-out: pEC50 human IBAT (converted)
T1 construct: expressed in transfected cells; host or cells: HEK293
T1 sequence (Q12908 1-348): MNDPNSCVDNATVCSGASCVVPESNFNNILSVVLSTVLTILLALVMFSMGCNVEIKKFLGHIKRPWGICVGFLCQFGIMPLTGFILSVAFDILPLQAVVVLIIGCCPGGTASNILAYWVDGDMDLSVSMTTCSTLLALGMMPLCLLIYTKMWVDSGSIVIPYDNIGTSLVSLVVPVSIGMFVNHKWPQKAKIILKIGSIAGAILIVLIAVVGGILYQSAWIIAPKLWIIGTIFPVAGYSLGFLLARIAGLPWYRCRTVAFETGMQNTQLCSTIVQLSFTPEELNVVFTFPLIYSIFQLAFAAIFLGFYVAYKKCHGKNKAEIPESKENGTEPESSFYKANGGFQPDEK
Experimental: Following a 40-min incubation, the solution was removed, and the cells were washed twice with uptake buffer. Cells were lysed by addition of 20 μL 0.1% Tween 80 followed by 100 μL scintillation fluid and counted using a TopCount (Perkin Elmer).

human TGR5 = target: T2, human TGR5 (Homo sapiens, UniProt Q8TDU6); test: Cell-based TGR5 assay, HEK293 cells stably expressing human TGR5, cAMP by HTRF; settings: pEC50 Human TGR5, HEK293 cells stably expressing human TGR5, 30 min at 37 C, 0.05 nM to 10 μM
T2 construct: expressed in transfected cells
T2 sequence (Q8TDU6 1-330): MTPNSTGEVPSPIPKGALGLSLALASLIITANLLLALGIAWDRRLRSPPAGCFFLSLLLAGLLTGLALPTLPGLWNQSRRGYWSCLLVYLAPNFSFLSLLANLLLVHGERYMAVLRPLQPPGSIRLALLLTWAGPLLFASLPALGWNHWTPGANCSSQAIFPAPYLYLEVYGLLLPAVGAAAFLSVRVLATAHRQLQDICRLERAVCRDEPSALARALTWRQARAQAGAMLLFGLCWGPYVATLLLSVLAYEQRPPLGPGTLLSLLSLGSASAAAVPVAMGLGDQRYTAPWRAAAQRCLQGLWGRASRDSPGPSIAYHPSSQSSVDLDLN
Procedure, shortened: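 cAMP HTRF read-out, converted to concentration via standard curve, after a 30 min, 37 °C compound exposure in HBSS with 10 mM HEPES pH 7.4 and 0.5 mM IBMX, compounds serially diluted 3-fold from 10 mM DMSO stock then 100-fold. Cells: stable human TGR5 HEK293, or NCI-H716 expressing TGR5 endogenously.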

Row | Structure (SMILES) | Number of Mice with Gallbladder Concentration < LLOQ [1] | Number of Mice with Plasma Concentration < LLOQ [2] | EC50 (human IBAT) [µM] | also measured
1 | O=C([C@@H]1C[C@@H](O)CN1Cc1cc(Cl)ccc1Cl)N1CCN(C2CC2)c2ccccc21 [Example 2, (4-cyclopropyl-3,4-dihydroquinoxalin-1(2H)-yl)((2S,4R)-1-(2,5-dichlorobenzyl)-4-hydroxypyrrolidin-2-yl)methanone] | – | – | > 25.1 | –
2 | O=C([C@@H]1CCCCN1Cc1cc(Cl)ccc1Cl)N1CCN(C2CC2)c2ccccc21 [Example 14, (S)-(4-cyclopropyl-3,4-dihydroquinoxaline-1(2H)-yl)(1-(2,5-dichlorobenzyl)piperidin-2-yl) methanone] | – | – | > 25.1 | –
3 | O=C([C@H]1CCCN1Cc1cc(Cl)ccc1Cl)N1CCN(C2CC2)c2ccccc21 [Example 15, (R)-(4-cyclopropyl-3,4-dihydroquinoxalin-1(2H)-yl)(1-(2,5-dichlorobenzyl)pyrrolidin-2-yl)methanone] | – | – | > 25.1 | –
4 | O=C([C@H]1CCCCN1Cc1cc(Cl)ccc1Cl)N1CCN(C2CC2)c2ccccc21 [Example 16, (R)-(4-cyclopropyl-3,4-dihydroquinoxaline-1(2H)-yl)(1-(2,5-dichlorobenzyl)piperidin-2-yl) methanone] | – | – | > 25.1 | –
5 | C[C@@]1(C(=O)N2CCN(C3CC3)c3ccccc32)CCCN1Cc1cc(Cl)ccc1Cl [Example 20, (S)-(4-cyclopropyl-3,4-dihydroquinoxaline-1(2H)-yl)(1-(2,5-dichlorobenzyl)-2-methylpyrrolidin-2-yl)methanone] | – | – | > 25.1 | –
6 | O=C([C@@H]1CSCCN1Cc1cc(Cl)ccc1Cl)N1CCN(C2CC2)c2ccccc21 [Example 22, (R)-(4-cyclopropyl-3,4-dihydroquinoxaline-1(2H)-yl)(4-(2,5-dichlorobenzyl)thiomorpholin-3-yl)methanone] | – | – | > 25.1 | –
7 | O=C([C@@H]1COCCN1Cc1cc(Cl)ccc1Cl)N1CCN(C2CC2)c2ccccc21 [Example 23, (S)-(4-cyclopropyl-3,4-dihydroquinoxaline-1(2H)-yl)(4-(2,5-dichlorobenzyl)morpholin-3-yl)methanone] | – | – | > 25.1 | –
8 | CN(C[C@@H](O)[C@H](O)[C@@H](O)[C@@H](O)CO)C(=O)NCCCCc1cc(Cl)c(CN2CSC[C@H]2C(=O)N2CCN(C3CC3)c3ccccc32)cc1Cl [Example 208] | 0/7 | 7/7 | – | concentration at 8 h [2]: < 0.5 ng/mL
9 | CN(C[C@H](O)[C@@H](O)[C@H](O)[C@H](O)CO)C(=O)CC[C@H](NC(=O)CCCCc1cc(Cl)c(CN2CSC[C@H]2C(=O)N2CCN(C3CC3)c3ccccc32)cc1Cl)C(=O)O [Example 278] | 0/8 | 5/8 | – | concentration at 8 h [1]: 3100 nM; concentration at 8 h [2]: 2.3 ng/mL; EC50 (human TGR5): 0.126 to 1 µM
10 | O=C(NCCCCCc1cc(Cl)c(CN2CSC[C@H]2C(=O)N2CCN(C3CC3)c3ccccc32)cc1Cl)NCP(=O)(O)O [Example 283] | 0/8 | 7/8 | – | concentration at 8 h [1]: 3060 nM; concentration at 8 h [2]: 24.8 ng/mL; EC50 (human TGR5): 0.126 to 1 µM
11 | O=C(NC[C@H](O)[C@@H](O)[C@H](O)[C@H](O)CO)c1ccc(OCc2cc(Cl)c(CN3CSC[C@H]3C(=O)N3CCN(C4CC4)c4ccccc43)cc2Cl)nc1 [Example 285] | 0/8 | 2/8 | – | –
12 | C[C@H](CCC(=O)O)[C@H]1CC[C@H]2[C@@H]3[C@H](O)C[C@@H]4C[C@H](O)CC[C@]4(C)[C@H]3CC[C@]12C [chenodeoxycholic acid, reference compound] | – | – | – | inhibition of uptake of [3H]taurocholic acid (human IBAT; IBAT-transfected HEK293 cells, potency similar to that reported by Craddock): inhibited uptake

More lines, main results first:

Row | Number of Mice with Gallbladder Concentration < LLOQ [1] | Number of Mice with Plasma Concentration < LLOQ [2] | EC50 (human IBAT) [µM] | Structure (SMILES) | also measured
13 | 0/8 | 7/8 | – | O=C(CCc1cc(Cl)c(CN2CSC[C@H]2C(=O)N2CCN(C3CC3)c3ccccc32)cc1Cl)NC[C@H](O)[C@@H](O)C(O)[C@H](O)CO (stereo in doubt) [Example 97, 3-(2,5-dichloro-4-(((R)-4-(4-cyclopropyl-1,2,3,4-tetrahydroquinoxaline-1-carbonyl)thiazolidin-3-yl)methyl)phenyl)-N-((2S,3R,4R,5R)-2,3,4,5,6-pentahydroxyhexyl)propanamide] | concentration at 8 h [1]: 520 nM
14 | – | – | > 25.1 | O=C([C@@H]1C[C@H](F)CN1Cc1cc(Cl)ccc1Cl)N1CCN(C2CC2)c2ccccc21 [Example 3, (4-cyclopropyl-3,4-dihydroquinoxalin-1(2H)-yl)((2S,4S)-1-(2,5-dichlorobenzyl)-4-fluoropyrrolidin-2-yl)methanone] | –
15 | – | – | > 25.1 | O=C([C@@H]1C[C@H](O)CN1Cc1cc(Cl)ccc1Cl)N1CCN(C2CC2)c2ccccc21 [Example 6, (4-cyclopropyl-3,4-dihydroquinoxalin-1(2H)-yl)((2S,4S)-1-(2,5-dichlorobenzyl)-4-hydroxypyrrolidin-2-yl)methanone] | –
16 | – | – | > 25.1 | O=C([C@@H]1CCCN1Cc1cc(Cl)ccc1Cl)N1CCCc2ccccc21 [Example 10, (S)-(1-(2,5-dichlorobenzyl)pyrrolidin-2-yl)(3,4-dihydroquinolin-1(2H)-yl)methanone] | –
17 | – | – | > 25.1 | O=C([C@@H]1CCCN1Cc1cc(Cl)ccc1Cl)N1CCN(C2CC2)c2ccccc21 [Example 12, (S)-(4-cyclopropyl-3,4-dihydroquinoxalin-1(2H)-yl)(1-(2,5-dichlorobenzyl)pyrrolidin-2-yl)methanone] | –
18 | 0/8 | 4/8 | – | CN(C[C@H](O)[C@@H](O)[C@@H](O)[C@H](O)CO)C(=O)CCc1cc(Cl)c(CN2CSC[C@H]2C(=O)N2CCN(C3CC3)c3ccccc32)cc1Cl [Example 98, 3-(2,5-dichloro-4-(((R)-4-(4-cyclopropyl-1,2,3,4-tetrahydroquinoxaline-1-carbonyl)thiazolidin-3-yl)methyl)phenyl)-N-methyl-N-((2S,3R,4S,5R)-2,3,4,5,6-pentahydroxyhexyl)propanamide] | –
19 | 0/7 | 7/8 | – | C[C@@H](NC(=O)[C@@H](C)NC(=O)[C@@H](C)NC(=O)CCCCc1cc(Cl)c(CN2CSC[C@H]2C(=O)N2CCN(C3CC3)c3ccccc32)cc1Cl)C(=O)O [Example 227] | concentration at 8 h [1]: 1730 nM; concentration at 8 h [2]: 0.6 ng/mL; EC50 (human TGR5): < 0.1 µM
20 | 1/8 | 7/8 | – | CN(C[C@H](O)[C@@H](O)[C@H](O)[C@H](O)CO)C(=O)CCc1cc(Cl)c(CN2CSC[C@H]2C(=O)N2CCN(C3CC3)c3ccccc32)cc1Cl [Example 237] | –
21 | 8/8 | 6/8 | – | CN(C[C@H](O)[C@@H](O)[C@@H](O)[C@H](O)CO)C(=O)CCCCc1cc(Cl)c(CN2CSC[C@H]2C(=O)N2CCN(C3CC3)c3ccccc32)cc1Cl [Example 239] | concentration at 8 h [1]: < 3 nM; concentration at 8 h [2]: 2 ng/mL
22 | 0/7 | 0/8 | – | O=C(NCCCCCc1cc(Cl)c(CN2CSC[C@H]2C(=O)N2CCN(C3CC3)c3ccccc32)cc1Cl)N1CCN(CP(=O)(O)O)CC1 [Example 282] | concentration at 8 h [1]: 80 nM; concentration at 8 h [2]: 2.8 ng/mL; EC50 (human TGR5): < 0.1 µM
